Test results published in ChEMBL document CHEMBL1201862, “PubChem BioAssay data set” (2004).
Calls of active or inactive are those of the source.

How the values were obtained:
Coagulation factor XII = target: T1, Coagulation factor XII (Homo sapiens, UniProt P00748); format: functional;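 further: activated factor XIIa alpha cleaving a fluorogenic AMC peptide substrate; inhibitor potency from loss of enzyme activity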
T1 sequence (P00748 whole entry): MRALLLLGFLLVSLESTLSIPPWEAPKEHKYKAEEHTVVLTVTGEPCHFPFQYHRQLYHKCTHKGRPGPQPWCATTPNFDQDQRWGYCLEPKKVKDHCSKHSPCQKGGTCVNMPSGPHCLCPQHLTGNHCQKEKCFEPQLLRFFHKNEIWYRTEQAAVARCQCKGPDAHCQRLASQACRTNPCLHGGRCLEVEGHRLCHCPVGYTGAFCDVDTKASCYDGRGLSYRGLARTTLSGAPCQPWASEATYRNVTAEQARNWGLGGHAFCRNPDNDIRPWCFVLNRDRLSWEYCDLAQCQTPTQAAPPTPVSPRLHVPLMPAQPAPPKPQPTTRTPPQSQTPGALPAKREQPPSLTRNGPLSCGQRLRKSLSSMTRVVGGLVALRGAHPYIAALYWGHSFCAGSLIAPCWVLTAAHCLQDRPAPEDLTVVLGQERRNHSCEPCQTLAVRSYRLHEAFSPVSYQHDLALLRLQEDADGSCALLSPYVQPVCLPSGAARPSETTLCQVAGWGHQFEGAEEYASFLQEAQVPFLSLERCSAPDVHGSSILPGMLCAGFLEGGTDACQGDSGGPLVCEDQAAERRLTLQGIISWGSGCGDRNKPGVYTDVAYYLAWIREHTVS

Large T antigen = Large T antigen (Simian virus 40, UniProt P03070); format: functional, Betapolyomavirus macacae;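 further: Confirmatory-stage PubChem screen for compounds that inhibit SV40 T antigen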
[1] = target: T2, Short transient receptor potential channel 4 (Mus musculus, UniProt Q9QUQ5); test: mouse TRPC4 channel inhibitors, dose response, cell-based, HEK293 TRPC4/mu-opioid, Fluo-4 calcium (AID 434942); format: functional;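 further: potency of inhibitors blocking the TRPC4 calcium response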
T2 sequence (Q9QUQ5 whole entry): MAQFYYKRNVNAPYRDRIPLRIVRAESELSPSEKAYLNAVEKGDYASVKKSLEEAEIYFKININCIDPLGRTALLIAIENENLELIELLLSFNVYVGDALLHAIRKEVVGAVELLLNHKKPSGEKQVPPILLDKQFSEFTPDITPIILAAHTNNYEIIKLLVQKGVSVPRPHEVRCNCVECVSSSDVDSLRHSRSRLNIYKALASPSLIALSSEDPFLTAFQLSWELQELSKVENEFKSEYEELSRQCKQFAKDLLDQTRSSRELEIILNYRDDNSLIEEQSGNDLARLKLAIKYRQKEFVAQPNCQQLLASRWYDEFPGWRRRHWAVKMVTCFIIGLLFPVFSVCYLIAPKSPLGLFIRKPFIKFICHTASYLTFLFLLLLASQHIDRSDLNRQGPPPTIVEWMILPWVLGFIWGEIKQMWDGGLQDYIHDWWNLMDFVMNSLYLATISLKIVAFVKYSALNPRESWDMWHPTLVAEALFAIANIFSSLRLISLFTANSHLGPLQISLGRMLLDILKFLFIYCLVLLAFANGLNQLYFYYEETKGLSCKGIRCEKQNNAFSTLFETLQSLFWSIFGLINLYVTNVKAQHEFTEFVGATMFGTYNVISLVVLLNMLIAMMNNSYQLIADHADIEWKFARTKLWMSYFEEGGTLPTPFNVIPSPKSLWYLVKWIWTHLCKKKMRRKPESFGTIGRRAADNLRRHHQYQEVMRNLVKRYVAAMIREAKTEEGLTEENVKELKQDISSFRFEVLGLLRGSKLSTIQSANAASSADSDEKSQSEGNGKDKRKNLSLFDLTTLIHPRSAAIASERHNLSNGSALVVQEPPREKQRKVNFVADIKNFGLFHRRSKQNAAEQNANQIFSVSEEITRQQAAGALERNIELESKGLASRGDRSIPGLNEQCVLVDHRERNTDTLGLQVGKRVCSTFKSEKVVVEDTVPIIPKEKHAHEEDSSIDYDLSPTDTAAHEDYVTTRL

[2] = target: Peroxisome proliferator-activated receptor gamma/Nuclear receptor coactivator 3 (Homo sapiens, UniProt P37231); test: (§1) TR-FRET dose response biochemical High Throughput Screening assay for agonists of the steroid receptor coactivator 3 (SRC-3) recruitment by the peroxisome proliferator-activated receptor gamma (PPAR gamma): non-selective agonists. [Related pubchem assays: 1301 (Confirmation screen.), 1048 (Primary screen.)]; format: functional
[3] = target: Peroxisome proliferator-activated receptor gamma/Nuclear receptor coactivator 1 (Homo sapiens, UniProt P37231); test: as §1, with “1 (SRC-1)” for “3 (SRC-3)”, “assays (depositor defined):AID1300, AID1808, AID504735, AID631]” for “assays: 1301 (Confirmation screen.), 1048 (Primary screen.)]”; format: protein assay
[4] = target: Peroxisome proliferator-activated receptor gamma/Nuclear receptor coactivator 2 (Homo sapiens, UniProt P37231); test: TR-FRET dose response biochemical High Throughput Screening assay for agonists of the steroid receptor coactivator 2 (SRC-2) recruitment by the peroxisome proliferator-activated receptor gamma (PPAR gamma): non-selective agonists. [Related pubchem assays: 1297, 1032 ]; format: functional
[5] = target: T3, Carboxy-terminal domain RNA polymerase II polypeptide A small phosphatase 1 (Homo sapiens, UniProt Q9GZU7); test: inhibitors of CTDSP1, concentration-response testing, biochemical assay, absorbance-based, actives from ultra-high-throughput screening (AID 540297); format: functional
T3 sequence (Q9GZU7 whole entry): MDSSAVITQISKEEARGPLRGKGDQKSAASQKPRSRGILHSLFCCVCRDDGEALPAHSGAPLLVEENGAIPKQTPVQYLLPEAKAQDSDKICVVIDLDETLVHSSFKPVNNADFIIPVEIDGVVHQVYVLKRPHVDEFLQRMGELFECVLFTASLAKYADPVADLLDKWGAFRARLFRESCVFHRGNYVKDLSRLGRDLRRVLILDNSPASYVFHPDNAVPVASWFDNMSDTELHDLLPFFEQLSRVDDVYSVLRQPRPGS

[6] = target: T4, Zinc finger protein mex-5 (Caenorhabditis elegans, UniProt Q9XUB2); test: MEX-5/TCR-2 RNA interaction inhibitors, dose response, biochemical, C. elegans, fluorescence polarization (AID 1960)
T4 sequence (Q9XUB2 whole entry): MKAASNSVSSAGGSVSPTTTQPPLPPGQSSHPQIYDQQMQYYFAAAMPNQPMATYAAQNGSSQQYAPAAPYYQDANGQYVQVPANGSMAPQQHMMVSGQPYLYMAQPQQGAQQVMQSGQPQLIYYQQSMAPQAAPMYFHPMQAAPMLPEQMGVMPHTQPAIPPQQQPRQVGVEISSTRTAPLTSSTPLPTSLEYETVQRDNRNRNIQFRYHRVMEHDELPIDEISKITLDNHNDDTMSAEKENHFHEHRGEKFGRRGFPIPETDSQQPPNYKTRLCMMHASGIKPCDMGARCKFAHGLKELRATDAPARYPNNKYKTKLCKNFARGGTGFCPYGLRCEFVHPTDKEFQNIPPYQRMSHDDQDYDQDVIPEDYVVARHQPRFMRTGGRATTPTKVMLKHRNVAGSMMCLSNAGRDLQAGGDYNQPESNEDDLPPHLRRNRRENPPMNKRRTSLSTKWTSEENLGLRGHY

[7] = target: T5, RNA-binding protein pos-1 (Caenorhabditis elegans, UniProt G5EF15); test: inhibitors of POS-1/mex-3 RNA binding, dose response, biochemical, fluorescence polarization (AID 1964);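 further: purified POS-1 fused to maltose binding protein made in E. coli; potency of compounds blocking POS-1 binding to fluorescent RNA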
T5 sequence (G5EF15 whole entry): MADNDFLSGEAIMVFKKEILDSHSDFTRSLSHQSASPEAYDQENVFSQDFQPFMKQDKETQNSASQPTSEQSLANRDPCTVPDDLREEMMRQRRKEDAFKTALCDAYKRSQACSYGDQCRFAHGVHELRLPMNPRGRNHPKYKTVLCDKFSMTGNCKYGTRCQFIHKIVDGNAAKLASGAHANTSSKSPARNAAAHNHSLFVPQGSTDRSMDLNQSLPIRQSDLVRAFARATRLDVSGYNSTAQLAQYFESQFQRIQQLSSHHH

[8] = target: Luciferin 4-monooxygenase (Photinus pyralis, UniProt P08659); test: firefly luciferase enzyme inhibitors, dose response, biochemical, luminescence (AID 1891)
[9] = Luminescence Cell-Based Dose Confirmation HTS to Identify Inhibitors of Platelet Dense Granule Release. [Related pubchem assays: 1663 (Primary HTS), 1678 (Summary of Project)]; format: functional
[10] = inhibitors of SNCA 5'UTR-driven reporter translation, confirmation, H4 neuroglioma cells, luminescence (AID 1988); format: functional, cell-based
[11] = Luminescence Cell-Based Dose Response HTS to Identify Inhibitors of 5'UTR Stem-Loop Driven Prion Protein mRNA Translation in H4 Neuroglioblastoma Cells. [Related pubchem assays: 1827 (Project Summary), 1813 (Primary HTS)]; format: functional
Genome polyprotein = Genome polyprotein (dengue virus type 2, UniProt P29990); test: Dengue-2 NS5 methyltransferase inhibitors, primary screen, biochemical, confirmation dose response (AID 588689); format: functional
Sequence of Genome polyprotein (P29990 2492-3391 limits assumed): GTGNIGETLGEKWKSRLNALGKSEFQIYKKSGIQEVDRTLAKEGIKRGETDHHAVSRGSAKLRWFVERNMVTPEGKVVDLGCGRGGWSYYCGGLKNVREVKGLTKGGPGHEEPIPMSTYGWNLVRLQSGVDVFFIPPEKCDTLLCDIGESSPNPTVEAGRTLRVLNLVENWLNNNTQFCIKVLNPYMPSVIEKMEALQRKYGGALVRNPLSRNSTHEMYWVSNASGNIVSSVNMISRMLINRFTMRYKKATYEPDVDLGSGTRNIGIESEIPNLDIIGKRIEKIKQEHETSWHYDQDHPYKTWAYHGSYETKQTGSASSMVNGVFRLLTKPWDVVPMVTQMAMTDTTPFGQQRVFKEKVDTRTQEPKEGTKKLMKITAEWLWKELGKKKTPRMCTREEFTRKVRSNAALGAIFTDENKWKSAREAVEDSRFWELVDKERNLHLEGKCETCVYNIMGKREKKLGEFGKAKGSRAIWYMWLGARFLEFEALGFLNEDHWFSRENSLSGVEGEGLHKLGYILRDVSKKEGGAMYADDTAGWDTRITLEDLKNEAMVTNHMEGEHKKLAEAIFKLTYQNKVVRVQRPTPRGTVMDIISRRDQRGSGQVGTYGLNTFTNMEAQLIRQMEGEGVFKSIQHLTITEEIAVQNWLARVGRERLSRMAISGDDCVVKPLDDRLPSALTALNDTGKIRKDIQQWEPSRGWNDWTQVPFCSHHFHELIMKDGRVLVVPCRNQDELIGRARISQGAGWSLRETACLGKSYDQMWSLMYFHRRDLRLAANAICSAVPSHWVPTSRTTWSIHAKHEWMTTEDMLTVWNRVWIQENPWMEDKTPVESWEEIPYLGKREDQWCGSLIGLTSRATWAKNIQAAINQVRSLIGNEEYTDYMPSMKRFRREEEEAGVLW

Sequence of Luciferin 4-monooxygenase (P08659 whole entry): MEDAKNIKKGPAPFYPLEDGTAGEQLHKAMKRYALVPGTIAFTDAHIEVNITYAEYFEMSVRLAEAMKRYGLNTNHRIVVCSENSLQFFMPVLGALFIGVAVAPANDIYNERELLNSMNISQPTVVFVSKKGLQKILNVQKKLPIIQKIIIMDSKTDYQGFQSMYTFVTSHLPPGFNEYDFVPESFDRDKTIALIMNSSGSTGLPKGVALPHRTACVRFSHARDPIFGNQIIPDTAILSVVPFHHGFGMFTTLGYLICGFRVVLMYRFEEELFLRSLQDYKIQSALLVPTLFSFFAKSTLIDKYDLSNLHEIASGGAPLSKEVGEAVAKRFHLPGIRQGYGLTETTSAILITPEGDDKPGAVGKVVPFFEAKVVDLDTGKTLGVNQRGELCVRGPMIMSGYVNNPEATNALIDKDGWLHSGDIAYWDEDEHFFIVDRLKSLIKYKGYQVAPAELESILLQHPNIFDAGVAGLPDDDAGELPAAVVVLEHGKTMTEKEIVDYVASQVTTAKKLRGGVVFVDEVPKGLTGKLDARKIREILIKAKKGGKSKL
Sequence of Large T antigen (P03070 whole entry): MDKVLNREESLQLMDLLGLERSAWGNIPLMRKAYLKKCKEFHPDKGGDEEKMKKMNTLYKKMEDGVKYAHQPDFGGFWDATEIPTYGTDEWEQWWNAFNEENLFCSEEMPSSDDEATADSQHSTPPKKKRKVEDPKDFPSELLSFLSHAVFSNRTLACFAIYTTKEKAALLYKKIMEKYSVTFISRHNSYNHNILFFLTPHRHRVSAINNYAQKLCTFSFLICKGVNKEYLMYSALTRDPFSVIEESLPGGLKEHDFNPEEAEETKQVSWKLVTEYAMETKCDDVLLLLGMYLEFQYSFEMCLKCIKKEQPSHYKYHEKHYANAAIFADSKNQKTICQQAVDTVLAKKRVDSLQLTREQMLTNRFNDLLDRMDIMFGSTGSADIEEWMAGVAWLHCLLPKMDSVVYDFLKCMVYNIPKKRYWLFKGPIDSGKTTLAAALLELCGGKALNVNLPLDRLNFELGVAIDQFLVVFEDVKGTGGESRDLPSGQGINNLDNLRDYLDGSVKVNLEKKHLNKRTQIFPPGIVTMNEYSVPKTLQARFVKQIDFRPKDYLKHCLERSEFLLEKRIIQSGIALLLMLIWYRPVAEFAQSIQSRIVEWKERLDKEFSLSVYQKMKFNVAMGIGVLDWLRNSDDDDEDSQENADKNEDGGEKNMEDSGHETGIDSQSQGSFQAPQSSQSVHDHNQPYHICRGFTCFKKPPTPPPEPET
Sequence of Peroxisome proliferator-activated receptor gamma/Nuclear receptor coactivator 1 (P37231 whole entry): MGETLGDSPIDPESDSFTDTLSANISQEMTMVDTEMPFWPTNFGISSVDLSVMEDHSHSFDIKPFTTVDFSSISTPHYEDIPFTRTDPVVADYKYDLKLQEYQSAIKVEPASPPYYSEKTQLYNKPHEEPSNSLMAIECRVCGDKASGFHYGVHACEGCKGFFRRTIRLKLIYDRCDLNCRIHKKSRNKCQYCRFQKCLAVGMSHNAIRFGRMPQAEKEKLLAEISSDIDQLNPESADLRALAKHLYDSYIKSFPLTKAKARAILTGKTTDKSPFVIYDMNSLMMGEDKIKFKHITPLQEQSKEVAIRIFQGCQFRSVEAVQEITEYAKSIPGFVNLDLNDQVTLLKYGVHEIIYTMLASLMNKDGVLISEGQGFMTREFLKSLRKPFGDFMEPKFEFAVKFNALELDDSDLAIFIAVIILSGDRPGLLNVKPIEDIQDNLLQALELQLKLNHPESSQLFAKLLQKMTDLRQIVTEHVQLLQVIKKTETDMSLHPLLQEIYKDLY
Sequence of Peroxisome proliferator-activated receptor gamma/Nuclear receptor coactivator 1 (Q15788 whole entry, further chain): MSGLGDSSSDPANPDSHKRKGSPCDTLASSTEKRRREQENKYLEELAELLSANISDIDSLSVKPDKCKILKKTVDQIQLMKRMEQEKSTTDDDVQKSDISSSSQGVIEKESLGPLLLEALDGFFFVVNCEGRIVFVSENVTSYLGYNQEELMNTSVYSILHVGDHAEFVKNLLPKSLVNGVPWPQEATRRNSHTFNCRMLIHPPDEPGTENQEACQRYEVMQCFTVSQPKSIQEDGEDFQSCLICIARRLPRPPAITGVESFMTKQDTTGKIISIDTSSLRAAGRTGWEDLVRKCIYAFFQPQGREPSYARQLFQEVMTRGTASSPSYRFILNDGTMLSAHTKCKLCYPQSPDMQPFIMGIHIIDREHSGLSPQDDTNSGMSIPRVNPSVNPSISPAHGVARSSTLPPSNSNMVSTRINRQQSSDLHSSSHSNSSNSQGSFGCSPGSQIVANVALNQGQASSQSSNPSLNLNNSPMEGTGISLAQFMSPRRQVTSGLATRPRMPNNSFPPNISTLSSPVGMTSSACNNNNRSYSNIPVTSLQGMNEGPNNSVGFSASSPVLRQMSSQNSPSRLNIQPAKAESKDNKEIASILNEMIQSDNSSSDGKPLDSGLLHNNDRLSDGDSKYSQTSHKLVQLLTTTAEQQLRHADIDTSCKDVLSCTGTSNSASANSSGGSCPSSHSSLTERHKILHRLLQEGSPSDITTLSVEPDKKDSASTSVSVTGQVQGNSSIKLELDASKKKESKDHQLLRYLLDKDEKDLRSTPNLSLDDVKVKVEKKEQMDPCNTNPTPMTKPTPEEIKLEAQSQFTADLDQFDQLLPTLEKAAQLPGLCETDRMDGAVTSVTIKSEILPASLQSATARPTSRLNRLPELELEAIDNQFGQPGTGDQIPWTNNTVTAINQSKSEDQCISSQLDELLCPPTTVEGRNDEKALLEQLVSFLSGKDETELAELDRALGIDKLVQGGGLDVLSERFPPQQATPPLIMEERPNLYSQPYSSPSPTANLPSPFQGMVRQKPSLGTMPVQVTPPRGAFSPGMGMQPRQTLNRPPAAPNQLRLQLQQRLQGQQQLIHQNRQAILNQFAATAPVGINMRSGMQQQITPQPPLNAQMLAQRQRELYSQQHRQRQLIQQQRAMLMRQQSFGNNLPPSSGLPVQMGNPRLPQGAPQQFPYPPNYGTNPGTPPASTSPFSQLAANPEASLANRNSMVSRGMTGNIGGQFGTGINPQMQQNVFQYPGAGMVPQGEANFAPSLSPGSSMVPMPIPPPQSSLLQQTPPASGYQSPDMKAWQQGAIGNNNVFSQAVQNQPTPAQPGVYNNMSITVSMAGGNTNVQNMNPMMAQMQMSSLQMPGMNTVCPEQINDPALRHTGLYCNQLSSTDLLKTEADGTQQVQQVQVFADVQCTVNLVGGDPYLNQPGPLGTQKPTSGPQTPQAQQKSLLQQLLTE

O=C(CN1C(=O)c2cccc3cccc1c23)NCc1ccc2c(c1)OCO2
IC50 (Coagulation factor XII): > 50 µM (inactive)

Cc1ccc(S(=O)(=O)N2CCCOC2CNC(=O)C(=O)NCCc2c[nH]c3ccccc23)cc1 (stereo not drawn)
IC50 (Large T antigen): 86.8 µM (active)

C(=N\c1ccc(N2CCOCC2)cc1)/c1c[nH]c2ccccc12
IC50 (Large T antigen): 4.34 µM (active)

CSCCNC(=O)c1ccc(OC2CCN(CCc3ccccc3)CC2)cc1
EC50 [1]: 0.473 µM (active)

Cn1c(S)nnc1-c1sc2cc(C(F)(F)F)cnc2c1-c1ccccc1
EC50 [2]: 16.3 µM (not active)
EC50 [3]: 3.6 µM (active)
EC50 [4]: 5.17 µM (active)

C/C(=N\Nc1ccc(Cl)c(C(=O)O)c1)c1ccc[nH]1
IC50 [5]: 4.28 µM (active)
EC50 [6]: > 150 µM (not active)
EC50 [7]: > 300 µM (not active)

COc1ccc(Cl)cc1N=C(N)Nc1nc(C)cc(C)n1
EC50 [1]: 2.11 µM (active)

CCOc1ccccc1-c1nnc(S)o1
EC50 [2]: > 79.4 µM (not active)
EC50 [3]: > 2.94 µM (inactive)
EC50 [4]: 35.6 µM (not active)

CN(Cc1ccccc1)c1ccc(S(=O)(=O)N2CCOCC2)cn1
EC50 [8]: > 112 µM (not active)
EC50 [9]: > 112 µM (not active)

O=C(CSc1nc2sc3c(c2c(=O)n1-c1ccccc1)CCCC3)N/N=C/c1ccc(C(=O)O)cc1
IC50 [5]: 25.9 µM (active)

Cc1ccsc1/C=N/Nc1nc(O)nnc1C
EC50 [8]: 0.519 µM (active)
EC50 [9]: 5.47 µM (active)

COc1ccc(O)c(CN2CCCC(C(=O)c3sccc3C)C2)c1 (stereo not drawn)
EC50 [1]: 3.35 µM (active)

O=[N+]([O-])c1cccc(-c2nnc(C3CC3)o2)c1
EC50 [1]: 3.76 µM (active)

Fc1cccc(Nc2c3c(nc4ccccc24)CCC3)c1
EC50 [1]: 1.19 µM (active)

COC(=O)c1c(N=C(S)Nc2ccccc2Cl)sc(C)c1C
EC50 [2]: > 79.4 µM (not active)
EC50 [3]: 84.9 µM (inactive)
EC50 [4]: 28.6 µM (not active)

COc1cc(/C=N/Nc2nc3ccccc3[nH]2)cc(OC)c1O
IC50 (Large T antigen): 7.09 µM (active)

O=S(=O)(Nc1ccccc1)c1ccc(-c2csnn2)cc1
IC50 (Coagulation factor XII): > 50 µM (inactive)

c1ccc2nc(-c3nc4ccccc4[nH]3)ccc2c1
EC50 [10]: 9.4 µM (active)
EC50 [8]: 0.49 µM (active)
EC50 [9]: 2.16 µM (active)
EC50 [11]: 11.1 µM (inconclusive)

CCOc1ccc(N2C(=O)S/C(=C\c3cccn3C)C2=O)cc1
EC50 [6]: > 300 µM (not active)
EC50 [8]: > 112 µM (not active)
EC50 [9]: > 112 µM (not active)
EC50 [7]: > 300 µM (inconclusive)

O=C(OCC(=O)c1ccc(Cl)s1)c1ccc2ccccc2n1
IC50 (Coagulation factor XII): > 50 µM (inactive)

Cn1c(=O)cc(SCC(=O)NCC2CCCO2)c2ccccc21 (stereo not drawn)
EC50 [2]: > 79.4 µM (not active)
EC50 [3]: > 79.4 µM (inactive)
EC50 [4]: > 79.4 µM (not active)

O=C(Cn1cnc2c(nnn2-c2cccc(Cl)c2)c1=O)NCc1ccccc1
IC50 [5]: 8.16 µM (active)

COC(=O)c1sccc1NC(=O)Nc1cccc(C)c1
EC50 [8]: 0.21 µM (active)
EC50 [9]: 2.5 µM (active)

c1ccc(-c2nc(-c3cccs3)[nH]c2-c2ccccc2)cc1
EC50 [2]: > 79.4 µM (not active)
EC50 [3]: 42.6 µM (inactive)
EC50 [4]: 32.3 µM (not active)

CCOC(=O)c1ccc2c(c1)nc(S)n2CC
EC50 [2]: > 79.4 µM (not active)
EC50 [3]: 17.5 µM (inactive)
EC50 [4]: 15.7 µM (not active)

Cc1ccc(CSc2nnc3c(n2)OC2(Nc4ccccc4-3)C(=O)Nc3ccc(F)cc32)cc1 (stereo not drawn)
IC50 (Genome polyprotein): 25 µM (active)

N=C1/C(=C/c2ccc(Br)o2)C(=O)N=C2SC(CC(=O)N3CCCC3)=NN12
IC50 [5]: > 80 µM (inactive)
IC50 (Large T antigen): 58.3 µM (active)

Cc1ccc(-c2nc(C[S+]([O-])CC(=O)NCCCN3CC(C)CC(C)C3)c(C)o2)cc1 (stereo not drawn)
EC50 [8]: > 112 µM (not active)
EC50 [9]: > 112 µM (not active)

CCCn1c(=O)c2ccccc2n2c(SCCOc3ccccc3)nnc12
EC50 [1]: 5.96 µM (active)

COc1ccc(C(=O)C2=C(O)C(=O)N(c3cc(C)on3)C2c2ccccc2OC)cc1 (stereo not drawn)
EC50 [2]: > 79.4 µM (not active)
EC50 [3]: 22.9 µM (inactive)
EC50 [4]: 18.2 µM (not active)

O=C(O)c1ccc(N=C(NS(=O)(=O)c2ccc(Cl)cc2)c2ccccc2)cc1
IC50 (Coagulation factor XII): > 50 µM (inactive)
